Laboratory results as given in PubChem BioAssay AID256 (DTP/NCI, 2004).
Several values for one entry are separate records, joined by “and”; a condition that tells them apart may be missing. Identical values can stand only once. Inconclusive results and toxic doses are left out. Rule for the calls: active = survival T/C of 150% or more; inactive = T/C below 125% in these data.

Test system: CD2F1 mice, L1210 leukemia ip, survival T/C
Experiment: NCI In Vivo Anticancer Drug Screen. Data for tumor model L1210 Leukemia (intraperitoneal) in CD2F1 (CDF1) mice
Details: endpoint: mean survival time, higher = longer survival
Procedure, shortened: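 Implant tumor; dose compound or vehicle; measure endpoint in both groups; report treated divided by control.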

[1] = dose: 100.0 mg/kg/injection, schedule: Q04DX003 (ip), vehicle: saline with Tween-80
[2] = dose: 200.0 mg/kg/injection, schedule: Q04DX003 (ip), vehicle: saline with Tween-80
[3] = dose: 400.0 mg/kg/injection, schedule: Q04DX003 (ip), vehicle: saline with Tween-80
[4] = dose: 100.0 mg/kg/injection, schedule: Q01DX009 (ip), vehicle: saline with Tween-80
[5] = dose: 200.0 mg/kg/injection, schedule: Q01DX009 (ip), vehicle: saline with Tween-80
[6] = dose: 400.0 mg/kg/injection, schedule: Q01DX009 (ip), vehicle: saline with Tween-80
[7] = dose: 100.0 mg/kg/injection, schedule: Q01DX001 (ip), vehicle: saline
[8] = dose: 200.0 mg/kg/injection, schedule: Q01DX001 (ip), vehicle: saline

Measured: T/C

CC(=O)OC1CCC2(C)C(CCC3C2C(=O)C(OC(C)=O)C2(C)C3CC3OC4(CCC(C)CO4)C(C)C32)C1 (centres undefined)
inactive: [1] 87 % of control | [2] 87 % of control | [3] 89 % of control

Nc1nc(=O)n(CCCOc2ccccc2NC(=O)c2ccc(S(=O)(=O)F)cc2)cc1-c1ccc(Cl)c(Cl)c1
inactive: dose: 50.0 mg/kg/injection, schedule: Q01DX001 (ip), vehicle: saline with Tween-80 96 % of control | dose: 100.0 mg/kg/injection, schedule: Q01DX001 (ip), vehicle: saline with Tween-80 93 % of control | dose: 200.0 mg/kg/injection, schedule: Q01DX001 (ip), vehicle: saline with Tween-80 93 % of control

CCCCCC(C)(C)N=[P+]([O-])NC(C)(C)CCCCC (centres undefined)
inactive: dose: 25.0 mg/kg/injection, schedule: Q04DX002 (ip), vehicle: saline with Tween-80 95 % of control | dose: 50.0 mg/kg/injection, schedule: Q04DX002 (ip), vehicle: saline with Tween-80 102 % of control | dose: 100.0 mg/kg/injection, schedule: Q04DX002 (ip), vehicle: saline with Tween-80 95 % of control and 98 % of control

COC(=O)c1cc(I)ccc1O
inactive: [4] 107 % of control | [1] 103 % of control | [5] 109 % of control | [2] 100 % of control | [6] 103 % of control | [3] 100 % of control

Cc1ccc(S(=O)(=O)Nc2ccc([N+](=O)[O-])cc2O)cc1
inactive: dose: 100.0 mg/kg/injection, schedule: Q04DX003 (ip), vehicle: Klucel (hydroxypropylcellulose) (HPC) 94 % of control | dose: 200.0 mg/kg/injection, schedule: Q04DX003 (ip), vehicle: Klucel (hydroxypropylcellulose) (HPC) 94 % of control | dose: 400.0 mg/kg/injection, schedule: Q04DX003 (ip), vehicle: Klucel (hydroxypropylcellulose) (HPC) 94 % of control

O=C1C=CC(=O)N1c1ccc(Cl)cc1 (tested in a mixture with another compound)
inactive: [4] 93 % of control | [5] 87 % of control | [6] 98 % of control

Nc1ccc(CCCCc2ccc(Cl)c(S(=O)(=O)F)c2)c(Cl)c1
inactive: [4] 95 % of control | [1] 95 % of control | [5] 92 % of control | [2] 101 % of control | [6] 94 % of control | [3] 94 % of control

CC(C)Oc1ccc2c(c1)Sc1ccc(Cl)cc1N2
inactive: [1] 93 % of control | [2] 96 % of control | [3] 102 % of control

O=C(/C(=N/N(C(=O)c1ccccc1)c1ccccc1)c1ccccc1)c1ccccc1
inactive: [1] 102 % of control | [2] 88 % of control | [3] 95 % of control

O=S1CCS(=O)CC1 (centres undefined)
inactive: [7] 96 % of control | [8] 93 % of control | dose: 400.0 mg/kg/injection, schedule: Q01DX001 (ip), vehicle: saline 98 % of control

CC(C)(C)OC(=O)Cc1ncnc2c1ncn2C1OC(CO)C(O)C1O (centres undefined)
inactive: dose: 12.5 mg/kg/injection, schedule: Q01DX005 (ip), vehicle: distilled water + Tween-80 103 % of control | dose: 25.0 mg/kg/injection, schedule: Q01DX005 (ip), vehicle: distilled water + Tween-80 102 % of control | dose: 50.0 mg/kg/injection, schedule: Q01DX005 (ip), vehicle: distilled water + Tween-80 96 % of control | dose: 100.0 mg/kg/injection, schedule: Q01DX005 (ip), vehicle: distilled water + Tween-80 97 % of control | dose: 200.0 mg/kg/injection, schedule: Q01DX005 (ip), vehicle: distilled water + Tween-80 102 % of control

CCN(CC)CCNC(=O)C(O)C1CCCCC1 (centres undefined)
inactive: dose: 75.0 mg/kg/injection, schedule: Q01DX001 (ip), vehicle: other 90 % of control

O=c1c(Br)cnc2ccccn12
inactive: dose: 12.5 mg/kg/injection, schedule: Q01DX001 (ip), vehicle: saline 107 % of control | dose: 25.0 mg/kg/injection, schedule: Q01DX001 (ip), vehicle: saline 98 % of control | dose: 50.0 mg/kg/injection, schedule: Q01DX001 (ip), vehicle: saline 102 % of control

N/N=C1\CC2C3CC4(OCCO4)C4C3CC2C14 (centres undefined)
inactive: dose: 75.0 mg/kg/injection, schedule: Q01DX001 (ip), vehicle: saline 102 % of control | dose: 150.0 mg/kg/injection, schedule: Q01DX001 (ip), vehicle: saline 103 % of control

C[C@H]1C[C@@H]2[C@H]([C@@H](O)C[C@@]3(C)[C@H]2CC[C@]3(O)C(=O)CF)[C@@]2(C)C=CC(=O)C=C12
inactive: dose: 100.0 mg/kg/injection, schedule: Q01DX001 (sc), vehicle: steriod suspending solution 98 % of control | dose: 200.0 mg/kg/injection, schedule: Q01DX001 (sc), vehicle: steriod suspending solution 101 % of control | dose: 400.0 mg/kg/injection, schedule: Q01DX001 (sc), vehicle: steriod suspending solution 108 % of control

Oc1cc2ccccc2c(-c2c(O)c(O)cc3ccccc23)c1O
inactive: dose: 12.5 mg/kg/injection, schedule: Q01DX009 (ip), vehicle: saline with Tween-80 103 % of control | dose: 25.0 mg/kg/injection, schedule: Q01DX009 (ip), vehicle: saline with Tween-80 100 % of control and 103 % of control | dose: 50.0 mg/kg/injection, schedule: Q01DX009 (ip), vehicle: saline with Tween-80 103 % of control and 105 % of control | [4] 100 % of control and 109 % of control | [5] 96 % of control

CCN(CC)CCSCCSCCN(CC)CC
inactive: [7] 100 % of control | [8] 100 % of control

CC(C)CC#N
inactive: [4] 100 % of control | [1] 101 % of control | [2] 104 % of control | [3] 104 % of control

OCn1c2ccccc2c2ccccc21
inactive: [1] 89 % of control | [2] 87 % of control | [3] 87 % of control
